Reference: ChEMBL document CHEMBL5727111, “Pyrrolidinyl urea, pyrrolidinyl thiourea and pyrrolidinyl guanidine compounds as TrkA kinase inhibitors” (2019)

Target: High affinity nerve growth factor receptor (Homo sapiens, UniProt P04629)
Test: TrkA Omnia Assay: Trk enzymatic selectivity was assessed using Omnia Kinase Assay reagents from Invitrogen Corp. Enzyme (TrkA from Invitrogen Corp.) and test compound (various concentrations) were incubated for 10 minutes at ambient temperature in a 384-well white polypropylene plate (Nunc catalog#267462). Omnia Tyr Peptide #4, as well as ATP, were then added to the plate. Final concentrations were as follows: 20 nM enzyme, 500 μM of ATP, 10 μM peptide substrate. The assay buffer consisted of 25 mM MOPS pH 7.5, 0.005% (v/v) Triton X-100 and 5 mM MgCl2. The production of phosphorylated peptide was monitored continuously for 70 minutes using a Molecular Devices FlexStation II384 microplate reader (excitation=360 nm; emission=485 nm). Initial rates were calculated from the progress curves. IC50 values were calculated from these rates using either a 4 or 5-parameter logistic curve fit.

Chain of High affinity nerve growth factor receptor (P04629 whole entry): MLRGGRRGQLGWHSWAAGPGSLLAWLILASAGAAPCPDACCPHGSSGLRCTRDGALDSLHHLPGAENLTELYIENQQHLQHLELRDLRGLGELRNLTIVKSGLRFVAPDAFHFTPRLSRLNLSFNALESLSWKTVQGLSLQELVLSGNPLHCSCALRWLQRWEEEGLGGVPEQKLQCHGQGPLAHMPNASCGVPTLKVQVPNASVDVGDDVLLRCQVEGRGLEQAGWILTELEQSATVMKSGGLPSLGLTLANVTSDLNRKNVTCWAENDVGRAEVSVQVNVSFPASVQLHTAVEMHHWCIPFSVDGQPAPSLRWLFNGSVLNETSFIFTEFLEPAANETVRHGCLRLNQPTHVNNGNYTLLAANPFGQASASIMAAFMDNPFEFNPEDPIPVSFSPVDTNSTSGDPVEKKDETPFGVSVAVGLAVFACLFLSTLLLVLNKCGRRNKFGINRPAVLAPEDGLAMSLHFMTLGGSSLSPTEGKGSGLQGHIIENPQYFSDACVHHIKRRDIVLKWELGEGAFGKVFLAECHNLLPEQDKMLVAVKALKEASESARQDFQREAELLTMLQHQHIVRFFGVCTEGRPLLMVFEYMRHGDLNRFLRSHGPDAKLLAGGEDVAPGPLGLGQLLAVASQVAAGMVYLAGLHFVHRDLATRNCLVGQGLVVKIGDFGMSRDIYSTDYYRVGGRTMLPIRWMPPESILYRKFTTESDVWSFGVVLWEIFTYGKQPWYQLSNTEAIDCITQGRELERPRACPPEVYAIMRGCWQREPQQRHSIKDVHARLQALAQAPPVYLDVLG

IC50, < 100 nM:
COCCN1C[C@@H](NC(=O)Nc2c(C)c(-c3cnn(C)c3)nn2-c2ccccc2)[C@H](c2ccccc2)C1
COc1ncccc1N1C[C@@H](NC(=O)Nc2c(C)c(-c3cnn(C)c3)nn2-c2ccccc2)[C@H](c2ccccc2)C1
COCCN1C[C@@H](NC(=O)Nc2c(C)c(-c3cnn(C)c3)nn2-c2ccccc2)[C@H](c2ccc(F)c(F)c2)C1
COCCN1C[C@@H](NC(=O)Nc2c(Cl)c(-c3cnn(C)c3)nn2-c2ccccc2)[C@H](c2cncc(F)c2)C1
COCCN1C[C@@H](NC(=O)Nc2c(C)c(-c3cnn(C)c3)nn2-c2cccc(Cl)c2)[C@H](c2ccc(F)c(F)c2)C1
COCCN1C[C@@H](NC(=O)Nc2c(C)c(-c3cnn(C)c3)nn2-c2ccc(F)c(Cl)c2)[C@H](c2ccc(F)c(F)c2)C1
COCCN1C[C@@H](NC(=O)Nc2c(C)c(-c3cnn(C)c3)nn2-c2cccc(F)c2)[C@H](c2ccc(F)cc2)C1
COCCN1C[C@@H](NC(=O)Nc2c(SC)c(C)nn2-c2ccccc2)[C@H](c2ccc(F)c(F)c2)C1
COCCN1C[C@@H](NC(=O)Nc2c(C)c(-c3cnn(C)c3)nn2-c2ccccc2)[C@H](c2cccc(C#N)c2)C1
CCOc1nn(-c2ccccc2)c(NC(=O)N[C@H]2CN(CC(F)(F)F)C[C@@H]2c2cccc(F)c2)c1C
COCCN1C[C@@H](NC(=O)Nc2c(C)c(-c3cnn(C)c3)nn2-c2cccc(Cl)c2F)[C@H](c2ccc(F)c(F)c2)C1
COCCN1C[C@@H](NC(=O)Nc2c(Cl)c(C)nn2-c2ccccc2)[C@H](c2cc(F)cc(F)c2)C1
COCCN1C[C@@H](NC(=O)Nc2cc(-c3ccc(C(=O)N(C)C)cc3)nn2C)[C@H](c2ccc(F)c(F)c2)C1
COCCN1C[C@@H](NC(=O)Nc2c(C)c(-c3cnn(C)c3)nn2-c2ccccc2)[C@H](c2ccc(C#N)cc2)C1
Cc1c(-c2ccc(=O)n(C)c2)nn(-c2ccccc2)c1NC(=O)N[C@H]1CN(CC(F)(F)F)C[C@@H]1c1ccccc1
COCCN1C[C@@H](NC(=O)Nc2c(C)c(-c3cnn(C)c3)nn2-c2ccccc2F)[C@H](c2ccc(F)cc2)C1
Cn1cc(-c2nn(-c3ccccc3)c(NC(=O)N[C@H]3CN(CC(F)(F)F)C[C@@H]3c3ccccc3)c2Cl)cn1
COCCN1C[C@@H](NC(=O)Nc2c(Br)c(C)nn2-c2ccccc2)[C@H](c2cc(F)cc(F)c2)C1
COCCN1C[C@@H](NC(=O)Nc2c(C)c(-c3cnn(C)c3)nn2-c2ccccc2)[C@H](c2ccc(F)cn2)C1 (relative stereo)
CCOc1nn(-c2ccccc2)c(NC(=O)N[C@@H]2CN(CCOC)C[C@H]2c2cncc(Cl)c2)c1C (relative stereo)
COCCN1C[C@@H](NC(=O)Nc2c(Br)c(C)nn2-c2ccccc2)[C@H](c2ccc(F)cn2)C1 (relative stereo)
COCCN1C[C@@H](NC(=O)Nc2c(C)c(-c3cnn(C)c3)nn2-c2ccccc2)[C@H](c2csnn2)C1 (relative stereo)
O=C(Nc1c2c(nn1-c1ccccc1)CCC2)N[C@@H]1CN(CC(F)F)C[C@H]1c1ccc(F)cc1 (relative stereo)
